# Measurements reported in patent publication EP4186514A1, “PHARMACEUTICAL COMPOSITION FOR PREVENTING OR TREATING CHOLANGITIS OR LIVER DISEASE CAUSED BY CHOLANGITIS COMPRISING ADENOSINE DERIVATIVE” (Future Medicine Co., Ltd., priority 2021, dated 2023).
# Columns and labels:
# hERG channel protein = hERG channel protein (Homo sapiens, UniProt Q12809); experiment: hERG ligand binding assay (fluorescence polarization)
# From the text: In order to test the hERG ligand binding assay of the compound of the formula A, a non-electrophysiological method was used to evaluate heart stability by evaluating fluorescence polarization according to the degree of hERG channel protein binding of a red fluorescent hERG channel ligand tracer.
# [1] = Plasma stability, human plasma; assay type: in vitro ADME
# Protocol: (§1) In order to test the physicochemical properties of the adenosine derivative of the inventive concept, experiments were conducted on the compound of the formula A in vitro, and the results are shown in Table 3. Plasma stability and protein binding were measured using rat and human plasma.
# [2] = Pharmacokinetic test in mice (Experimental Example 5); assay type: in vivo; settings: male, ICR, mouse, plasma, oral administration of 10 mg/kg, read-out: half-life T1/2 (converted)
# Protocol: In order to test the ADME properties of the adenosine derivative of the inventive concept after oral administration, pharmacokinetic properties of the compound of the formula A were measured in vivo. […] Intravenous administration was performed through a tube inserted into the femoral vein, and oral administration was performed using oral gavage. [Table 4] [table] After the administration, the experimental animals' blood was taken at predetermined time intervals for 24 hours. Then, the blood was centrifuged to separate plasma. The plasma samples were pretreated with a suitable organic solvent, and then the concentration of the plasma samples was analyzed by LC-MS/MS. The blood concentration-time data of the compound of the formula A was analyzed using WinNonlin (Pharsight, USA), and graphs of the blood concentration-time data are shown in FIGS. 5 through 9. The results of noncompartmental pharmacokinetic parameters calculated from the blood concentration-time data are shown in Tables 5 through 9. In FIGS. 5 through 9, I.V. represents an intravenous administration group, P.O. represents an oral administration group, and the definition of each parameter in Tables 5 through 9 is shown in Table 10. FIG. 7 and Table 7 show a graph and parameter values obtained from the blood concentration-time data of Experimental Example 5. […] Thus, the adenosine derivative is suitable for oral administration.
# Kinetic solubility = assay type: physicochemical; settings: listed as compound of the formula A
# Protocol: as §1
# each cell line = experiment: Cytotoxicity, Cyto X cell viability assay kit; assay type: cell-based; settings: summary Table 11
# [3] = Cytotoxicity, Cyto X cell viability assay kit; assay type: cell-based; settings: in each cell line
# rats = experiment: Single-dose toxicity in rats; settings: summary Table 11
# Protocol: In order to test the single-dose toxicity of the compound of the formula A, a single dose of 2,000 mg/kg of the compound of the formula A was administered to each of five male rats and five female rats.
# [4] = tested on: histidine-requiring Salmonella (strains TA98, TA100, TA1535 and TA1537) and tryptophan-requiring Escherichia coli (strain WP2uvrA (pKM101)); assay type: cell-based
# Protocol: In order to test the genotoxicity of the compound of the formula A, the gene mutagenicity of the compound of the formula A was evaluated in the presence and absence of metabolic activation by using histidine-requiring Salmonella (strains TA98, TA100, TA1535 and TA1537) and tryptophan-requiring Escherichia coli (strain WP2uvrA (pKM101)).
# [5] = Pharmacokinetic test in rats (Experimental Examples 3 and 4); assay type: in vivo; settings: male, SD, rat, plasma, po
# Protocol: In order to test the ADME properties of the adenosine derivative of the inventive concept after oral administration, pharmacokinetic properties of the compound of the formula A were measured in vivo.
# Intravenous administration was performed through a tube inserted into the femoral vein, and oral administration was performed using oral gavage.
# After the administration, the experimental animals' blood was taken at predetermined time intervals for 24 hours. Then, the blood was centrifuged to separate plasma. The plasma samples were pretreated with a suitable organic solvent, and then the concentration of the plasma samples was analyzed by LC-MS/MS. The blood concentration-time data of the compound of the formula A was analyzed using WinNonlin (Pharsight, USA), and graphs of the blood concentration-time data are shown in FIGS. 5 through 9. The results of noncompartmental pharmacokinetic parameters calculated from the blood concentration-time data are shown in Tables 5 through 9. In FIGS. 5 through 9, I.V. represents an intravenous administration group, P.O. represents an oral administration group, and the definition of each parameter in Tables 5 through 9 is shown in Table 10.
# Thus, the adenosine derivative of the inventive concept is more suitable for oral administration than for intravenous administration.
# Sprague Dawley rats = experiment: Toxicity after intraperitoneal injection, rats; assay type: in vivo; settings: intraperitoneal 20, 10 and 1 mg/kg
# Protocol: The Adenosine Derivative of the present invention were assayed for cytotoxicity in animals.
# PAMPA = assay type: in vitro ADME
# Protocol: as §1
# Sequence of hERG channel protein (Q12809 whole entry): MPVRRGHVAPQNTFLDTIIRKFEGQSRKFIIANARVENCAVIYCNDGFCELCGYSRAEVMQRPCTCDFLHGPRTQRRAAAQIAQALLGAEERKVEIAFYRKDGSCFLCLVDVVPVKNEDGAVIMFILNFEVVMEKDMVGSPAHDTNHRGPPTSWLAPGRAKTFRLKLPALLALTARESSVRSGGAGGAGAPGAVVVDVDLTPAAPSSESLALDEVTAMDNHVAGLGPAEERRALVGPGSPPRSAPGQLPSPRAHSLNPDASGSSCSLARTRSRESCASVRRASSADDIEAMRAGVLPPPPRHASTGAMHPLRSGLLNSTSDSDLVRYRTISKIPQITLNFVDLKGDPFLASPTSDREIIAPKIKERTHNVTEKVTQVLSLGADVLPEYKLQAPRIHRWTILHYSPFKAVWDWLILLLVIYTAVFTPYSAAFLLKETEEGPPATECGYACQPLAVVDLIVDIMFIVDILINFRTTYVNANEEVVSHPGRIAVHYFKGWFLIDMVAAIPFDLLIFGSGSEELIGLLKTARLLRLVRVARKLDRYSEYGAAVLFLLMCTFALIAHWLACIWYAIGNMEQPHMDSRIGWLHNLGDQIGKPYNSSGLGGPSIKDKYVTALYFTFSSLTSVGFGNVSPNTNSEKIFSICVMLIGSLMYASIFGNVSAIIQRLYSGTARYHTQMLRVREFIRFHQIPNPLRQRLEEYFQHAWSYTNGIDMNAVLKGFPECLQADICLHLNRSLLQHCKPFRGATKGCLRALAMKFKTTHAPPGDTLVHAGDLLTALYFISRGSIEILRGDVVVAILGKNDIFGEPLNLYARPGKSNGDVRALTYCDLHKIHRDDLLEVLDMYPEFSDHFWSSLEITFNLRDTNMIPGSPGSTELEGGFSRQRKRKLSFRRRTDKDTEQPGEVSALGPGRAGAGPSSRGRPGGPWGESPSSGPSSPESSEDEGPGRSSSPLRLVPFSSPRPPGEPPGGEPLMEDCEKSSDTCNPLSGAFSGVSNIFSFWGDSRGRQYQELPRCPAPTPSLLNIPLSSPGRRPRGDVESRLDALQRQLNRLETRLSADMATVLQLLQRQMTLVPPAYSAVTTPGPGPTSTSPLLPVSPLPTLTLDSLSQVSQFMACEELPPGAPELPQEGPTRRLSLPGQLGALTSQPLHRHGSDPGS
structure (smiles),measurement,setting,value
"O[C@@H]1[C@H](O)CS[C@H]1n1cnc2c(NCc3cccc(Cl)c3)nc(Cl)nc21 [Example 2, (2R,3R,4S)-2-(2-chloro-6-(3-chlorobenzylamino)-9H-purin-9-yl)tetrahydrothiophen-3,4-diol]",inhibition rate (hERG ligand binding),hERG channel protein; 10 µM of the compound,≤ 50%
same,"Toxicity, hERG ligand binding assay evaluation",hERG channel protein; summary Table 11,Not detected
same,Plasma stability,[1],98.9
same,half-life,[2],~3.61 h
same,Kinetic solubility,Kinetic solubility,148.8 µg/mL
same,"Toxicity, Cytotoxicity evaluation",each cell line,Not detected
same,IC50,[3],≥ 10 µM
same,"Toxicity, Single-dose toxicity evaluation",rats,Not detected
same,number of back-mutant colonies versus negative control group,"[4]; all doses of each strain, regardless of the metabolic activation",did not exceed twice the number of back-mutant colonies of the negative control group
same,dose-dependent increase of back-mutant colonies,"[4]; each strain, presence and absence of metabolic activation",no dose-dependent increase was observed
same,"Toxicity, Genotoxicity evaluation",[4]; summary Table 11,Not detected
same,bioavailability,[5]; read-out: bioavailability Ft,≥ 99.9%
same,half-life,[5]; read-out: half-life T1/2,≥ 3.34 h
same,weight gain or feed intake versus control group,Sprague Dawley rats,No difference
same,death,Sprague Dawley rats; observation for 24 hrs,No death was observed
same,PAMPA,PAMPA,-4.49
